In US9822069B2, “Urea derivative or pharmacologically acceptable salt thereof” (KYORIN PHARMACEUTICAL CO. LTD., priority 2013, dated 2017):

Target: T1, human FPRL1 (Homo sapiens, UniProt P25090)
T1 construct: expressed in transfected cells; host or cells: HEK293 (JCRB9068, NIBIO), transient transfection with pCMV-script vectors using Lipofectamine 2000
T1 sequence (P25090 1-351): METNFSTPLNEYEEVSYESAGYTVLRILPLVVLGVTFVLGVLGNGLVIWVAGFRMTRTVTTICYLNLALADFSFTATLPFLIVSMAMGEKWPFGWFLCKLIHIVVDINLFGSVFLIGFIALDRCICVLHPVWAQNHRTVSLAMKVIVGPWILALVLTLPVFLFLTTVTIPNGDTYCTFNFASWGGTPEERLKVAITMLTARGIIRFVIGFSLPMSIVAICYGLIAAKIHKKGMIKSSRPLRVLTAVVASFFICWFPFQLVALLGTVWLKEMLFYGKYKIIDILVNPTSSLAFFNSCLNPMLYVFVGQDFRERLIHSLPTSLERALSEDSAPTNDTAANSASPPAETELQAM
Assay: Measurement test of agonist activity on human FPRL1 (test of calcium mobilization in cell, HEK293 with human FPRL1 and Gα15 expression vectors)
Type: cell-based
Settings: calcium mobilization in HEK293 cells with human FPRL1 and Gα15 expression vectors
Source text: Measurement Test of Agonist Activity on Human FPRL1
(1-1) Construction of Human FPRL1 Expression Vector
Human FPRL (SEQ ID NO: 3) was amplified in a PCR reaction from cDNA derived from a monocytic leukemia cell line THP-1 (TIB-202, ATCC) as a template using a forward primer shown in SEQ ID NO: 1, a reverse primer shown in SEQ ID NO: 2, and KOD-plus-ver. 2 (KOD-211, TOYOBO CO., LTD.). The amplified PCR product and pCMV-script vector (212220, STRATAGENE) were digested with Hind III (1060A, Takara Bio Inc.) and XhoI (1094A, Takara Bio Inc.), and the resultant digest was ligated with Ligation high ver. 2 (LGK-201, TOYOBO CO., LTD.). The ligation product was transformed into DH5α (DNA-901, TOYOBO CO., LTD.), cultured on a 100 μg/mL kanamycin-containing LB medium, and purified with HiSpeed Plasmid Maxi Kit (12662, QIAGEN).
(1-2) Construction of Human Gα15 Expression Vector
Human Gα15 (SEQ ID NO: 6) was amplified in a PCR reaction from cDNA derived from a myeloid leukemia cell line HL-60 (CCL-240, ATCC) as a template using a forward primer shown in SEQ ID NO: 4, a reverse primer shown in SEQ ID NO: 5, and KOD-plus-ver. 2. The amplified PCR product and pCMV-script vector were digested with Hind III and XhoI, and the resultant digest was ligated with Ligation high ver. 2. The ligation product was transformed into DH5α, cultured on a 100 μg/mL kanamycin-containing LB medium, and purified with HiSpeed Plasmid Maxi Kit.
(2-1) Method for Culturing and Subculturing HEK293
HEK293 (JCRB9068, NIBIO) was cultured in an incubator at 5% CO2 and 37° C. using DMEM (11885-092, GIBCO) containing 10% FBS and 1× Penicillin-Streptomycin (15140-122, GIBCO). Subculture was carried out as followings: The cells that reached 80 to 90% confluency were washed with PBS(−), separated using 0.25% Trypsin-EDTA (25200-072, GIBCO), centrifuged, re-suspended in a fresh medium, and then seeded in Collagen Type 1 Coated dish (4020-010, IWAKI) at a split ratio of 1:8 (cultured for 3 days).
(2-2) Introduction of Human FPRL1 and Gα15 Expression Vectors
HEK293 that reached 80 to 90% confluency was washed with PBS(−), separated using 0.25% Trypsin-EDTA, centrifuged, and re-suspended in a fresh medium excluding 1× Penicillin-Streptomycin. The cells were inoculated in a Collagen Type 1 coated 6-well plate (4810-010, IWAKI) to 5×10^5 cells/2.5 mL/well and cultured overnight. On the next day, human FPRL1 and Gα15 expression vectors were introduced using Lipofectamine 2000 transfection reagent (11668-019, Life technologies). First, the human FPRL1 and Gα15 expression vectors were diluted with Opti-MEM I Reduced Serum Medium (31985-070, GIBCO) to 2 μg/250 μL/well and Lipofectamine 2000 transfection reagent was diluted with Opti-MEM I Reduced Serum Medium to be 4 μL/250 μL/well. The vectors and reagent were softly diffused, and incubated at room temperature for 5 minutes. The vector solution was mixed with Lipofectamine 2000 transfection reagent in equal amounts. In order to form a composite of the vectors and Lipofectamine 2000 transfection reagent, the mixture was incubated at room temperature for 20 minutes, and added at 500 μL/well to the medium of inoculated cells. The treated cells were cultured for 24 hours, inoculated in Poly-D-Lysine coated 96-well plate (356640, BD Biosciences) at a cell density of 7×10^4 cells/100 μL/well, and cultured for another 24 hours. The resultant cells were used in a measurement test of calcium mobilization in the cells.
(3) Evaluation of Agonist Activity on Human FPRL1 (Test of Calcium Mobilization in Cell)
An appropriate amount of each test compound was first weighed, and dissolved to 10^−2 M by addition of dimethyl sulfoxide (DMSO). […]

EC50 [nM] | Structure (SMILES)
0.32 | COc1ccc([C@@H]2CN(CCO)C(=O)C2NC(=O)Nc2ccc(Cl)cc2)cc1 (mixture of isomers) [Example 14-1, (±)-trans-1-(4-Chlorophenyl)-3-[1-(2-hydroxyethyl)-4-(4-methoxyphenyl)-2-oxopyrrolidin-3-yl]urea]
3.98 | COc1ccc([C@@H]2CNC(=O)[C@H]2NC(=O)Nc2ccc(F)cc2)c(Cl)c1 (relative stereo) [EXAMPLE 1-10, 1-[(3S*,4R*)-4-(2-chloro-4-methoxyphenyl)-2-oxopyrrolidin-3-yl]-3-(4-fluorophenyl)urea]
0.37 | C/N=C1\NC[C@@H](c2c(F)cc(OC)cc2F)[C@@H]1NC(=O)Nc1ccc(F)cc1 (relative stereo) [EXAMPLE 32-6, 1-[(3S*,4R*,Z)-4-(2,6-difluoro-4-methoxyphenyl)-2-(methylimino)pyrrolidin-3-yl]-3-(4-fluorophenyl)urea]
0.54 | COc1cc(F)c([C@@H]2CN=C(Nc3ccccc3)[C@H]2NC(=O)Nc2ccc(F)cc2)c(F)c1 (relative stereo) [EXAMPLE 32-18, 1-[(3R*,4S*)-3-(2,6-difluoro-4-methoxyphenyl)-5-(phenylamino)-3,4-dihydro-2H-pyrrol-4-yl]-3-(4-fluorophenyl)urea]
1.91 | COc1cc(F)c([C@@H]2CNC(=O)[C@H]2NC(=O)Nc2ncc(Cl)s2)c(F)c1 (relative stereo) [Example 1-26, (−)-1-(5-chlorothiazol-2-yl)-3-[(3S*,4R*)-4-(2,6-difluoro-4-methoxyphenyl)-2-oxopyrrolidin-3-yl]urea]
4.54 | COc1cc(F)c([C@@H]2CNC(=O)[C@H]2NC(=O)Nc2ccc(Cl)cn2)c(F)c1 (relative stereo) [Example 1-32, (−)-1-(5-chloropyridin-2-yl)-3-[(3S*,4R*)-4-(2,6-difluoro-4-methoxyphenyl)-2-oxopyrrolidin-3-yl]urea]
0.76 | COc1cc(F)c([C@@H]2CNC(=O)[C@H]2NC(=O)Nc2cc3ccccc3s2)c(F)c1 (relative stereo) [Example 1-35, (−)-1-(benzo[b]thiophen-2-yl)-3-[(3S*,4R*)-4-(2,6-difluoro-4-methoxyphenyl)-2-oxopyrrolidin-3-yl]urea]
3.51 | COc1cc(F)c([C@@H]2CNC(=O)[C@H]2NC(=O)Nc2ccc(C)s2)c(F)c1 (relative stereo) [Example 1-39, (−)-1-[(3S*,4R*)-4-(2,6-difluoro-4-methoxyphenyl)-2-oxopyrrolidin-3-yl]-3-(5-methylthiophen-2-yl)urea]
1.44 | COc1ccc([C@@H]2[C@H](C)NC(=O)[C@H]2NC(=O)Nc2ccc(F)cc2)cc1 (relative stereo) [Example 1-40, (−)-1-(4-fluorophenyl)-3-[(3S*,4R*,5S*)-4-(4-methoxyphenyl)-5-methyl-2-oxopyrrolidin-3-yl]urea]
0.73 | COc1ccc([C@H]2[C@H](NC(=O)Nc3ccc(F)cc3)C(=O)N[C@@H]2C)cc1 (relative stereo) [Example 1-41, (−)-1-(4-fluorophenyl)-3-[(3S*,4R*,5R*)-4-(4-methoxyphenyl)-5-methyl-2-oxopyrrolidin-3-yl]urea]
5.13 | O=C(Nc1ccc(Cl)cc1)N[C@H]1C(=O)NC[C@@H]1c1ccccc1 (relative stereo) [Example 1-43, (+)-1-(4-chlorophenyl)-3-[(3R*,4S*)-2-oxo-4-phenylpyrrolidin-3-yl]urea]
0.16 | COc1cc(F)c([C@@H]2CNC(=O)[C@H]2NC(=O)Nc2cccc(O)c2)c(F)c1 (relative stereo) [Example 1-57, 1-[(3S*,4R*)-4-(2,6-difluoro-4-methoxyphenyl)-2-oxopyrrolidine-3-yl]-3-(3-hydroxyphenyl)urea]
0.32 | COc1cc(F)c([C@@H]2CNC(=O)[C@H]2NC(=O)Nc2cc(C)ns2)c(F)c1 (relative stereo) [Example 1-58, (−)-1-[(3S*,4R*)-4-(2,6-difluoro-4-methoxyphenyl)-2-oxopyrrolidin-3-yl]-3-(3-methylisothiazol-5-yl)urea]
1.05 | COc1cc(F)c([C@@H]2CNC(=O)[C@H]2NC(=O)Nc2ccc(C3CC3)cc2)c(F)c1 (relative stereo) [Example 1-62, (−)-1-(4-cyclopropylphenyl)-3-[(3S*,4R*)-4-(2,6-difluoro-4-methoxyphenyl)-2-oxopyrrolidin-3-yl]urea]
0.92 | COc1cc(F)c([C@@H]2CNC(=O)[C@H]2NC(=O)Nc2ccc(C(F)(F)F)cc2)c(F)c1 (relative stereo) [Example 1-63, (−)-1-[(3S*,4R*)-4-(2,6-difluoro-4-methoxyphenyl)-2-oxopyrrolidin-3-yl]-3-[4-(trifluoromethyl)phenyl]urea]
1.2 | COc1cc(F)c([C@@H]2CNC(=O)[C@H]2NC(=O)Nc2ccc(C#N)c(O)c2)c(F)c1 (relative stereo) [Example 1-73, 1-(4-cyano-3-hydroxyphenyl)-3-[(3S*,4R*)-4-(2,6-difluoro-4-methoxyphenyl)-2-oxopyrrolidin-3-yl]urea]
1.8 | O=C(Nc1ccc(F)cc1)N[C@@H]1C(=O)NC[C@H]1c1c(F)cc(OC(F)F)cc1F (relative stereo) [Example 1-74, 1-{(3S*,4R*)-4-[4-(difluoromethoxy)-2,6-difluorophenyl]-2-oxopyrrolidin-3-yl}-3-(4-fluorophenyl)urea]
5.2 | O=C(Nc1ccc(F)cc1)N[C@@H]1C(=O)NC[C@H]1c1cc2ccoc2cc1F (relative stereo) [Example 1-77, (−)-1-[(3S*,4R*)-4-(6-fluorobenzofuran-5-yl)-2-oxopyrrolidin-3-yl]-3-(4-fluorophenyl)urea]
0.69 | O=C(Nc1ccc(F)cc1)N[C@@H]1C(=O)NC[C@H]1c1c(F)cc2c(c1F)CCO2 (relative stereo) [Example 1-80, 1-[(3S*,4R*)-4-(4,6-difluoro-2,3-dihydrobenzofuran-5-yl)-2-oxopyrrolidin-3-yl]-3-(4-fluorophenyl)urea]
3.5 | O=C(Nc1cc2ccccc2s1)N[C@@H]1C(=O)NC[C@H]1c1cc2c(cc1F)OCC2 (relative stereo) [Example 1-85, (−)-1-(benzo[b]thiophen-2-yl)-3-[(3S*,4R*)-4-(6-fluoro-2,3-dihydrobenzofuran-5-yl)-2-oxopyrrolidin-3-yl]urea]
1.09 | COc1cc(F)c([C@@H]2CNC(=O)[C@H]2NC(=O)Nc2ccc(OC(F)(F)F)cc2)c(F)c1 (relative stereo) [Example 7-1, (−)-1-[(3S*,4R*)-4-(2,6-Difluoro-4-methoxyphenyl)-2-oxopyrrolidin-3-yl]-3-[4-(trifluoromethoxy)phenyl]urea]
1.56 | COc1cc(F)c([C@@H]2CNC(=O)[C@H]2NC(=O)Nc2ccc(Oc3ccccc3)cc2)c(F)c1 (relative stereo) [Example 7-7, (−)-1-[(3S*,4R*)-4-(2,6-difluoro-4-methoxyphenyl)-2-oxopyrrolidin-3-yl]-3-(4-phenoxyphenyl)urea]
